ChEMBL document CHEMBL3608278 (J Med Chem, 2015)

Experiments:
[1] = molecular target: T1, Potassium voltage-gated channel subfamily A member 3 (Homo sapiens, UniProt P22001); format: cell-based, CHO-K1
[2] = molecular target: T1, Potassium voltage-gated channel subfamily A member 3; experiment: cell-based; design: species or system Blood
[3] = molecular target: T1, Potassium voltage-gated channel subfamily A member 3; design: species or system Blood

T1 sequence (P22001 whole entry): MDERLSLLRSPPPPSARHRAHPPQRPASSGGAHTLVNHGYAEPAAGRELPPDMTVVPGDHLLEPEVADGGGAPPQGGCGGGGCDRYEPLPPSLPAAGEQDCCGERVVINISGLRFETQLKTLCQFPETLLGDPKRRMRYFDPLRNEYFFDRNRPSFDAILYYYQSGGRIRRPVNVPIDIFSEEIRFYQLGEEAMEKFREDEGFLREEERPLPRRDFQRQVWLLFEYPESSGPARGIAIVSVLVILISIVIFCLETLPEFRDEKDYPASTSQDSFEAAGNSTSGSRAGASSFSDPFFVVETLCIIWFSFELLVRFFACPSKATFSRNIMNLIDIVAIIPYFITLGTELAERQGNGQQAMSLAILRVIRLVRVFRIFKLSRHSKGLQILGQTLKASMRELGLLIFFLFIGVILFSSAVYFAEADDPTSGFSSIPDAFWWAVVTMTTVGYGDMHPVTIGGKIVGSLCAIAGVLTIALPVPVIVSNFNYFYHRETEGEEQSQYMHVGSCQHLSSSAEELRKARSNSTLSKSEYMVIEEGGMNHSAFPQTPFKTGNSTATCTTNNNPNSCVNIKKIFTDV

IC50 [1]	IC50 [2]	IC50 [3]	Structure (SMILES)
> 3.33 nM	> 92 nM	> 92 nM	CC[C@H](C)[C@@H]1NC(=O)[C@@H](NC(=O)[C@H](CO)NC(=O)[C@@H](N)CCCNC(=N)N)CSSC[C@@H](C(=O)O)NC(=O)[C@H]([C@@H](C)O)NC(=O)CNC(=O)[C@@H]2CSSC[C@@H]3NC(=O)[C@H](CCC(N)=O)NC(=O)[C@H](Cc4ccccc4)NC(=O)[C@H](C)NC(=O)[C@H]([C@@H](C)O)NC(=O)[C@H](CSSC[C@H](NC(=O)[C@H](Cc4ccccc4)NC(=O)[C@H](CO)NC(=O)[C@H](CC(C)C)NC(=O)[C@H](CCCNC(=N)N)NC(=O)[C@H](Cc4ccc(O)cc4)NC(=O)[C@H](CCCCN)NC(=O)[C@H](CCSC)NC(=O)[C@H](CCC(=O)O)NC(=O)[C@H](Cc4cnc[nH]4)NC(=O)[C@H](CCCCN)NC3=O)C(=O)N[C@@H](CCCNC(=N)N)C(=O)N[C@@H](CCCCN)C(=O)N[C@@H]([C@@H](C)O)C(=O)N2)NC(=O)[C@H](CCCNC(=N)N)NC(=O)[C@H](CO)NC(=O)[C@H](CCCCN)NC(=O)[C@@H]2CCCN2C(=O)[C@H]([C@@H](C)CC)NC(=O)[C@H]([C@@H](C)O)NC(=O)[C@H](CC(=O)O)NC1=O
0.245 nM	0.494 nM	0.678 nM	CC[C@H](C)[C@@H]1NC(=O)[C@@H](NC(=O)[C@H](CO)NC(=O)[C@@H](N)CCCNC(=N)N)CSSC[C@@H](C(=O)O)NC(=O)[C@H]([C@@H](C)O)NC(=O)CNC(=O)[C@@H]2CSSC[C@@H]3NC(=O)[C@H](CCC(N)=O)NC(=O)[C@H](Cc4ccccc4)NC(=O)[C@H](C)NC(=O)[C@H]([C@@H](C)O)NC(=O)[C@H](CSSC[C@H](NC(=O)[C@H](Cc4ccccc4)NC(=O)[C@H](CO)NC(=O)[C@H](CCC(=O)O)NC(=O)[C@H](CCCNC(=N)N)NC(=O)[C@H](Cc4ccc(O)cc4)NC(=O)[C@H](CCCCN)NC(=O)[C@H](CCSC)NC(=O)[C@H](CO)NC(=O)[C@H](Cc4cnc[nH]4)NC(=O)[C@H](CCCCN)NC3=O)C(=O)N[C@@H](CCCNC(=N)N)C(=O)N[C@@H](CCCCN)C(=O)N[C@@H]([C@@H](C)O)C(=O)N2)NC(=O)[C@H](CCCNC(=N)N)NC(=O)[C@H](CO)NC(=O)[C@H](CCCCN)NC(=O)[C@@H]2CCCN2C(=O)[C@H]([C@@H](C)CC)NC(=O)[C@H]([C@@H](C)O)NC(=O)[C@H](CC(=O)O)NC1=O
0.234 nM	0.242 nM	0.309 nM	CC[C@H](C)[C@@H]1NC(=O)[C@@H](NC(=O)[C@H](CO)NC(=O)[C@@H](N)CCCNC(=N)N)CSSC[C@@H](C(=O)O)NC(=O)[C@H]([C@@H](C)O)NC(=O)CNC(=O)[C@@H]2CSSC[C@@H]3NC(=O)[C@H](CCC(N)=O)NC(=O)[C@H](Cc4ccccc4)NC(=O)[C@H](C)NC(=O)[C@H]([C@@H](C)O)NC(=O)[C@H](CSSC[C@H](NC(=O)[C@H](Cc4ccccc4)NC(=O)[C@H](CO)NC(=O)[C@H](CC(C)C)NC(=O)[C@H](CCCNC(=N)N)NC(=O)[C@H](Cc4ccc(O)cc4)NC(=O)[C@H](CCCCN)NC(=O)[C@H](CCSC)NC(=O)[C@H](CO)NC(=O)[C@H](Cc4cnc[nH]4)NC(=O)[C@H](CCCCN)NC3=O)C(=O)N[C@@H](CCCNC(=N)N)C(=O)N[C@@H](CCCCN)C(=O)N[C@@H](CCC(=O)O)C(=O)N2)NC(=O)[C@H](CCCNC(=N)N)NC(=O)[C@H](CO)NC(=O)[C@H](CCCCN)NC(=O)[C@@H]2CCCN2C(=O)[C@H]([C@@H](C)CC)NC(=O)[C@H]([C@@H](C)O)NC(=O)[C@H](CC(=O)O)NC1=O

More lines, now with the values behind:

Structure (SMILES)	IC50 [1]	IC50 [2]	IC50 [3]
CC[C@H](C)[C@@H]1NC(=O)[C@@H](NC(=O)[C@H](CO)NC(=O)[C@@H](N)CCCNC(=N)N)CSSC[C@@H](C(=O)O)NC(=O)[C@H]([C@@H](C)O)NC(=O)CNC(=O)[C@@H]2CSSC[C@@H]3NC(=O)[C@H](CCC(N)=O)NC(=O)[C@H](Cc4ccccc4)NC(=O)[C@H](C)NC(=O)[C@H]([C@@H](C)O)NC(=O)[C@H](CSSC[C@H](NC(=O)[C@H](Cc4ccccc4)NC(=O)[C@H](CO)NC(=O)[C@H](CC(C)C)NC(=O)[C@H](CCCNC(=N)N)NC(=O)[C@H](Cc4ccc(O)cc4)NC(=O)[C@H](CCCCN)NC(=O)[C@H](CCC(=O)O)NC(=O)[C@H](CO)NC(=O)[C@H](Cc4cnc[nH]4)NC(=O)[C@H](CCCCN)NC3=O)C(=O)N[C@@H](CCCNC(=N)N)C(=O)N[C@@H](CCCCN)C(=O)N[C@@H]([C@@H](C)O)C(=O)N2)NC(=O)[C@H](CCCNC(=N)N)NC(=O)[C@H](CO)NC(=O)[C@H](CCCCN)NC(=O)[C@@H]2CCCN2C(=O)[C@H]([C@@H](C)CC)NC(=O)[C@H]([C@@H](C)O)NC(=O)[C@H](CC(=O)O)NC1=O	> 3.33 nM	18.5 nM	28.1 nM
CC[C@H](C)[C@@H]1NC(=O)[C@@H](NC(=O)[C@H](CO)NC(=O)[C@@H](N)CCCNC(=N)N)CSSC[C@@H](C(=O)O)NC(=O)[C@H]([C@@H](C)O)NC(=O)CNC(=O)[C@@H]2CSSC[C@@H]3NC(=O)[C@H](CCC(N)=O)NC(=O)[C@H](Cc4ccccc4)NC(=O)[C@H](C)NC(=O)[C@H]([C@@H](C)O)NC(=O)[C@H](CSSC[C@H](NC(=O)[C@H](Cc4ccccc4)NC(=O)[C@H](CO)NC(=O)[C@H](CC(C)C)NC(=O)[C@H](CCCNC(=N)N)NC(=O)[C@H](Cc4ccc(O)cc4)NC(=O)[C@H](CCC(=O)O)NC(=O)[C@H](CCSC)NC(=O)[C@H](CO)NC(=O)[C@H](Cc4cnc[nH]4)NC(=O)[C@H](CCCCN)NC3=O)C(=O)N[C@@H](CCCNC(=N)N)C(=O)N[C@@H](CCCCN)C(=O)N[C@@H]([C@@H](C)O)C(=O)N2)NC(=O)[C@H](CCCNC(=N)N)NC(=O)[C@H](CO)NC(=O)[C@H](CCCCN)NC(=O)[C@@H]2CCCN2C(=O)[C@H]([C@@H](C)CC)NC(=O)[C@H]([C@@H](C)O)NC(=O)[C@H](CC(=O)O)NC1=O	> 3.33 nM	> 100 nM	> 100 nM
CC[C@H](C)[C@@H]1NC(=O)[C@@H](NC(=O)[C@H](CO)NC(=O)[C@@H](N)CCCNC(=N)N)CSSC[C@@H](C(=O)O)NC(=O)[C@H]([C@@H](C)O)NC(=O)CNC(=O)[C@@H]2CSSC[C@@H]3NC(=O)[C@H](CCC(N)=O)NC(=O)[C@H](Cc4ccccc4)NC(=O)[C@H](C)NC(=O)[C@H]([C@@H](C)O)NC(=O)[C@H](CSSC[C@H](NC(=O)[C@H](Cc4ccccc4)NC(=O)[C@H](CO)NC(=O)[C@H](CC(C)C)NC(=O)[C@H](CCCNC(=N)N)NC(=O)[C@H](CCC(=O)O)NC(=O)[C@H](CCCCN)NC(=O)[C@H](CCSC)NC(=O)[C@H](CO)NC(=O)[C@H](Cc4cnc[nH]4)NC(=O)[C@H](CCCCN)NC3=O)C(=O)N[C@@H](CCCNC(=N)N)C(=O)N[C@@H](CCCCN)C(=O)N[C@@H]([C@@H](C)O)C(=O)N2)NC(=O)[C@H](CCCNC(=N)N)NC(=O)[C@H](CO)NC(=O)[C@H](CCCCN)NC(=O)[C@@H]2CCCN2C(=O)[C@H]([C@@H](C)CC)NC(=O)[C@H]([C@@H](C)O)NC(=O)[C@H](CC(=O)O)NC1=O	> 3.33 nM	> 100 nM	> 100 nM
CC[C@H](C)[C@@H]1NC(=O)[C@@H](NC(=O)[C@H](CO)NC(=O)[C@@H](N)CCCNC(=N)N)CSSC[C@@H](C(=O)O)NC(=O)[C@H]([C@@H](C)O)NC(=O)CNC(=O)[C@@H]2CSSC[C@@H]3NC(=O)[C@H](CCC(N)=O)NC(=O)[C@H](Cc4ccccc4)NC(=O)[C@H](C)NC(=O)[C@H]([C@@H](C)O)NC(=O)[C@H](CSSC[C@H](NC(=O)[C@H](CCC(=O)O)NC(=O)[C@H](CO)NC(=O)[C@H](CC(C)C)NC(=O)[C@H](CCCNC(=N)N)NC(=O)[C@H](Cc4ccc(O)cc4)NC(=O)[C@H](CCCCN)NC(=O)[C@H](CCSC)NC(=O)[C@H](CO)NC(=O)[C@H](Cc4cnc[nH]4)NC(=O)[C@H](CCCCN)NC3=O)C(=O)N[C@@H](CCCNC(=N)N)C(=O)N[C@@H](CCCCN)C(=O)N[C@@H]([C@@H](C)O)C(=O)N2)NC(=O)[C@H](CCCNC(=N)N)NC(=O)[C@H](CO)NC(=O)[C@H](CCCCN)NC(=O)[C@@H]2CCCN2C(=O)[C@H]([C@@H](C)CC)NC(=O)[C@H]([C@@H](C)O)NC(=O)[C@H](CC(=O)O)NC1=O	> 3.33 nM	8.16 nM	34 nM
CC[C@H](C)[C@@H]1NC(=O)[C@@H](NC(=O)[C@H](CO)NC(=O)[C@@H](N)CCCNC(=N)N)CSSC[C@@H](C(=O)O)NC(=O)[C@H]([C@@H](C)O)NC(=O)CNC(=O)[C@@H]2CSSC[C@@H]3NC(=O)[C@H](CCC(N)=O)NC(=O)[C@H](Cc4ccccc4)NC(=O)[C@H](C)NC(=O)[C@H]([C@@H](C)O)NC(=O)[C@H](CSSC[C@H](NC(=O)[C@H](Cc4ccccc4)NC(=O)[C@H](CO)NC(=O)[C@H](CC(C)C)NC(=O)[C@H](CCCNC(=N)N)NC(=O)[C@H](Cc4ccc(O)cc4)NC(=O)[C@H](CCCCN)NC(=O)[C@H](CCSC)NC(=O)[C@H](CO)NC(=O)[C@H](Cc4cnc[nH]4)NC(=O)[C@H](CCCCN)NC3=O)C(=O)N[C@@H](CCCNC(=N)N)C(=O)N[C@@H](CCC(=O)O)C(=O)N[C@@H]([C@@H](C)O)C(=O)N2)NC(=O)[C@H](CCCNC(=N)N)NC(=O)[C@H](CO)NC(=O)[C@H](CCCCN)NC(=O)[C@@H]2CCCN2C(=O)[C@H]([C@@H](C)CC)NC(=O)[C@H]([C@@H](C)O)NC(=O)[C@H](CC(=O)O)NC1=O	0.278 nM	0.02 nM	0.043 nM
CC[C@H](C)[C@@H]1NC(=O)[C@@H](NC(=O)[C@H](CO)NC(=O)[C@@H](N)CCCNC(=N)N)CSSC[C@@H](C(=O)O)NC(=O)[C@H]([C@@H](C)O)NC(=O)CNC(=O)[C@@H]2CSSC[C@@H]3NC(=O)[C@H](CCC(N)=O)NC(=O)[C@H](Cc4ccccc4)NC(=O)[C@H](C)NC(=O)[C@H]([C@@H](C)O)NC(=O)[C@H](CSSC[C@H](NC(=O)[C@H](Cc4ccccc4)NC(=O)[C@H](CO)NC(=O)[C@H](CC(C)C)NC(=O)[C@H](CCCNC(=N)N)NC(=O)[C@H](Cc4ccc(O)cc4)NC(=O)[C@H](CCCCN)NC(=O)[C@H](CCSC)NC(=O)[C@H](CO)NC(=O)[C@H](Cc4cnc[nH]4)NC(=O)[C@H](CCCCN)NC3=O)C(=O)N[C@@H](CCCNC(=N)N)C(=O)N[C@@H](CCCCN)C(=O)N[C@@H]([C@@H](C)O)C(=O)N2)NC(=O)[C@H](CCCNC(=N)N)NC(=O)[C@H](CO)NC(=O)[C@H](CCCCN)NC(=O)[C@@H]2CCCN2C(=O)[C@H]([C@@H](C)CC)NC(=O)[C@H]([C@@H](C)O)NC(=O)[C@H](CCCNC(=N)N)NC1=O	> 3.33 nM	40.5 nM	91.7 nM
